Measured values published in ChEMBL document CHEMBL5357073, “Novel Heterocyclic PAD4 Inhibitors for Treating Multiple Diseases” (ACS Med Chem Lett, 2024).

target: Protein-arginine deiminase type-4 (Homo sapiens, UniProt Q9UM07); experiment: Inhibition of human recombinant PAD4 using TSTGGRQGSHH peptide as substrate preincubated for 30 mins followed by substrate addition and measured after 90 mins by RapidFire mass spectroscopy analysis
Sequence (Q9UM07 whole entry): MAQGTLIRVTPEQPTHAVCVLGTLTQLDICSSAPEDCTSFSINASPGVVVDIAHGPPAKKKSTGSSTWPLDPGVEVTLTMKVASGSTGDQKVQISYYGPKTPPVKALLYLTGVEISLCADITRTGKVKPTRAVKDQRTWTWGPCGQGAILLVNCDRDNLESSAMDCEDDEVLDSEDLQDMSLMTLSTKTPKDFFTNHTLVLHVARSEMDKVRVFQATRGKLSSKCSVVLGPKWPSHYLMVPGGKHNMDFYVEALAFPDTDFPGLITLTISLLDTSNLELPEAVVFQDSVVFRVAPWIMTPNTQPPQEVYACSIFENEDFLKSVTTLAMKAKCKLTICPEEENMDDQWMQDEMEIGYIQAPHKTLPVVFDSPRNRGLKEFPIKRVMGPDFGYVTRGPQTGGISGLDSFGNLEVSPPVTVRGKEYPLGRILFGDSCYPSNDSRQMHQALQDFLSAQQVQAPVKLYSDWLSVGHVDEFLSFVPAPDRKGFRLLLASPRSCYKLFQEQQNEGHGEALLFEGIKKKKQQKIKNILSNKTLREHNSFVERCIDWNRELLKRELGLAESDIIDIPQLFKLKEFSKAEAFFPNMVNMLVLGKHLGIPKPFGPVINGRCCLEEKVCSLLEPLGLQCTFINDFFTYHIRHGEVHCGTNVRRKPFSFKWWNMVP

IC50, ≤ 10 nM:
COC(=O)N(C)CCOc1cccc2cc(-c3nc4cc5c(cc4n3C)CCN(CC(N)CF)C5=O)n(CC3CC3)c12 (stereo unspecified)
Cn1c(-c2cc3cccc(OCCn4cnnn4)c3n2CC2CC2)nc2cc3c(cc21)CCN(CC(N)CF)C3=O (stereo unspecified)
Cn1c(-c2cc3cccc(OCCn4ccnc4)c3n2CC2CC2)nc2cc3c(cc21)CCN(CC(N)CF)C3=O (stereo unspecified)
Cn1c(-c2cc3cccc(OCC4CNC(=O)O4)c3n2CC2CC2)nc2cc3c(cc21)CCN(CC(N)CF)C3=O (stereo unspecified)
Cn1c(-c2cc3cccc(OCCn4cncn4)c3n2CC2CC2)nc2cc3c(cc21)CCN(CC(N)CF)C3=O (stereo unspecified)
Cn1c(-c2cc3cccc(OCCc4cnoc4)c3n2CC2CC2)nc2cc3c(cc21)CCN(CC(N)CF)C3=O (stereo unspecified)
